Numbers after ± are expanded uncertainties.
Conditions: 323.15 K, Liquid, Vibrating tube method

CCCC(=O)OCC(COC(=O)CCC)(COC(=O)CCC)COC(=O)CCC [pentaerythritol tetrabutyrate]
Conditions	mass density [kg/m3]
15786 kPa	1036 ± 1.2
15818 kPa	1036 ± 1.2
15856 kPa	1036.1 ± 1.2
15888 kPa	1036 ± 1.2
15920 kPa	1036 ± 1.2
15952 kPa	1036.1 ± 1.2
15991 kPa	1036.1 ± 1.2
16024 kPa	1036.1 ± 1.2
16057 kPa	1036.1 ± 1.2
16097 kPa	1036.2 ± 1.2
16131 kPa	1036.3 ± 1.2
16164 kPa	1036.2 ± 1.2
16204 kPa	1036.3 ± 1.2
16238 kPa	1036.4 ± 1.2
16305 kPa	1036.3 ± 1.2
16381 kPa	1036.4 ± 1.2
16759 kPa	1036.6 ± 1.2
16795 kPa	1036.7 ± 1.2
16831 kPa	1036.7 ± 1.2
16875 kPa	1036.7 ± 1.2
18410 kPa	1037.7 ± 1.2
18440 kPa	1037.7 ± 1.2
18726 kPa	1037.9 ± 1.2
18756 kPa	1038 ± 1.2
19188 kPa	1038.2 ± 1.3
19252 kPa	1038.3 ± 1.3
19278 kPa	1038.4 ± 1.3
19311 kPa	1038.3 ± 1.3
19396 kPa	1038.4 ± 1.3
19436 kPa	1038.4 ± 1.3
19469 kPa	1038.4 ± 1.3
19501 kPa	1038.4 ± 1.3
19541 kPa	1038.4 ± 1.3
19574 kPa	1038.4 ± 1.3
19608 kPa	1038.4 ± 1.3
19648 kPa	1038.6 ± 1.3
19682 kPa	1038.6 ± 1.3
19970 kPa	1038.7 ± 1.3
20047 kPa	1038.7 ± 1.3
20089 kPa	1038.7 ± 1.3
20124 kPa	1038.7 ± 1.3
20159 kPa	1038.9 ± 1.3
20202 kPa	1038.8 ± 1.3
20238 kPa	1039 ± 1.3
20546 kPa	1039.1 ± 1.3
20584 kPa	1039 ± 1.3
21551 kPa	1039.8 ± 1.3
21639 kPa	1039.7 ± 1.3
21673 kPa	1039.9 ± 1.3
21714 kPa	1039.9 ± 1.3
21749 kPa	1039.8 ± 1.3
21784 kPa	1039.8 ± 1.3
21826 kPa	1039.9 ± 1.3
21862 kPa	1040 ± 1.3
21898 kPa	1040 ± 1.3
21934 kPa	1040 ± 1.3
21976 kPa	1040 ± 1.3
22011 kPa	1040 ± 1.3
22048 kPa	1040 ± 1.3
22091 kPa	1040.1 ± 1.3
22126 kPa	1040 ± 1.3
22162 kPa	1040.2 ± 1.3
22206 kPa	1040.1 ± 1.3
22243 kPa	1040.2 ± 1.3
22279 kPa	1040.1 ± 1.3
22323 kPa	1040.3 ± 1.3
22360 kPa	1040.1 ± 1.3
22398 kPa	1040.2 ± 1.3
22443 kPa	1040.4 ± 1.3
22480 kPa	1040.3 ± 1.3
22518 kPa	1040.3 ± 1.3
22563 kPa	1040.3 ± 1.3
22602 kPa	1040.4 ± 1.3
23845 kPa	1041.3 ± 1.3
23898 kPa	1041.2 ± 1.3
23944 kPa	1041.2 ± 1.3
23987 kPa	1041.3 ± 1.3
24030 kPa	1041.3 ± 1.3
24100 kPa	1041.4 ± 1.3
24135 kPa	1041.4 ± 1.3
24290 kPa	1041.4 ± 1.3
24326 kPa	1041.4 ± 1.3
24362 kPa	1041.4 ± 1.3
24397 kPa	1041.5 ± 1.3
24789 kPa	1041.8 ± 1.3
24827 kPa	1041.8 ± 1.3
24872 kPa	1041.9 ± 1.3
24910 kPa	1041.8 ± 1.3
25317 kPa	1042.1 ± 1.3
25357 kPa	1042.1 ± 1.3
25403 kPa	1042.2 ± 1.3
25442 kPa	1042.2 ± 1.3
25481 kPa	1042.2 ± 1.3
25528 kPa	1042.2 ± 1.3
25569 kPa	1042.3 ± 1.3
25608 kPa	1042.2 ± 1.3
25656 kPa	1042.3 ± 1.3
25696 kPa	1042.3 ± 1.3
25736 kPa	1042.3 ± 1.3
25784 kPa	1042.5 ± 1.3
26584 kPa	1042.8 ± 1.3
27050 kPa	1043.1 ± 1.3
27094 kPa	1043.1 ± 1.3
27148 kPa	1043.2 ± 1.3
27193 kPa	1043.3 ± 1.3
27239 kPa	1043.4 ± 1.3
27294 kPa	1043.3 ± 1.3
27340 kPa	1043.4 ± 1.3
27386 kPa	1043.3 ± 1.3
27432 kPa	1043.4 ± 1.3
27488 kPa	1043.4 ± 1.3
27535 kPa	1043.5 ± 1.3
27876 kPa	1043.7 ± 1.3
27985 kPa	1043.8 ± 1.3
28093 kPa	1043.7 ± 1.3
28151 kPa	1044 ± 1.3
28200 kPa	1043.9 ± 1.3
28250 kPa	1043.9 ± 1.3
28409 kPa	1044 ± 1.3
28460 kPa	1044.1 ± 1.3
28519 kPa	1044 ± 1.3
28562 kPa	1044.2 ± 1.3
28628 kPa	1044.1 ± 1.3
28679 kPa	1044.2 ± 1.3
28730 kPa	1044.2 ± 1.3
29066 kPa	1044.5 ± 1.3
29135 kPa	1044.4 ± 1.3
29177 kPa	1044.5 ± 1.3
29260 kPa	1044.5 ± 1.3
29301 kPa	1044.6 ± 1.3
29338 kPa	1044.7 ± 1.3
29373 kPa	1044.7 ± 1.3
29415 kPa	1044.7 ± 1.3
29449 kPa	1044.6 ± 1.3
29492 kPa	1044.7 ± 1.3
29529 kPa	1044.8 ± 1.3
29563 kPa	1044.8 ± 1.3
29598 kPa	1044.6 ± 1.3
29642 kPa	1044.9 ± 1.3
29678 kPa	1044.8 ± 1.3
29720 kPa	1044.9 ± 1.3
29756 kPa	1044.8 ± 1.3
29793 kPa	1044.8 ± 1.3
29839 kPa	1044.9 ± 1.3
30028 kPa	1045.1 ± 1.3
30074 kPa	1045.1 ± 1.3
